The target of series [1] is RAC-alpha serine/threonine-protein kinase (Homo sapiens) (UniProt P31749). Briefly: Inhibition of Akt phosphorylation in human PC3 cells at 50 nM after 24 hrs by Western blot method relative to control. Type of series: cell-based.
Series [2] has as its system PC-3. Nature of the series: Induction of apoptosis in human PC3 cells assessed as Bcl2 level at 50 nM after 24 hrs by Western blot method relative to control. The format is functional.
For series [3], the system named is PC-3. Nature of the series: Cytotoxicity against 3D culture of human PC3 cells assessed as size of tissue like structure at 50 nM administered once every alternative day for 10 days measured on post last dose by matrigel based microscopic method relative to control. The format is functional.
In series [4] the test system is LNCaP. Nature of the series: Cytotoxicity against human LNCAP cells assessed as decrease in cell viability after 72 hrs by trypan blue exclusion assay. Type of series: functional, cell-based.
Series [5] has as its system PC-3. Nature of the series: Cytotoxicity against human PC3 cells assessed as decrease in cell viability after 72 hrs by trypan blue exclusion assay. The format is functional, cell-based.
For series [6], the system named is LNCaP. Briefly: Induction of apoptosis in human LNCAP cells assessed as morphological changes by propidium iodide staining based fluorescence microscopy. The format is functional, cell-based.
The test system of series [7] is PC-3. Nature of the series: Induction of apoptosis in human PC3 cells assessed as morphological changes by propidium iodide staining based fluorescence microscopy. Type of series: functional, cell-based.
Series [8] can be described thus: Drug uptake in CD2F1 mouse plasma at 26.3 mg/kg administered for 1 min via intravenous injection measured 60 mins post dose. The format is ADME, organism-based.
Series [9] has as its system RWPE-1. Nature of the series: Cytotoxicity against human RWPE1 cells at >=100 nM after 72 hrs by tryphan blue exclusion assay. The format is cell-based. Conditions: rwpe-1, 72 h.
The subject of series [10] is PC-3. Briefly: Potentiation of 3 nM docetaxel-induced cytotoxicity against human PC3 cells assessed as decrease in cell viability at 50 nM after 72 hrs by trypan blue exclusion assay. The format is functional, cell-based.
Series [11] relates to RWPE-1. Briefly: Potentiation of 2 nM docetaxel-induced cytotoxicity against human RWPE1 cells assessed as decrease in cell viability at 50 nM after 72 hrs by trypan blue exclusion assay. Type of series: cell-based. To be noted: rwpe-1, 72 h, 0.05 µM.
Series [12] has as its system PC-3. Briefly: Induction of apoptosis in human PC3 cells at 50 nM after 72 hrs by propidium iodide staining based fluorescence microscopy (reference value: 1.9 +/- 0.8%). The format is functional.
Series [13] relates to PC-3. Nature of the series: Potentiation of 2 nM docetaxel-induced apoptosis in human PC3 cells at 50 nM after 72 hrs by propidium iodide staining based fluorescence microscopy (reference value: 1.9 +/- 0.8%). Type of series: functional.
For series [14], the system named is PC-3. Briefly: Cytotoxicity against human PC3 cells assessed as cell viability at 50 nM after 72 hrs by trypan blue exclusion assay relative to control. Type of series: functional. Conditions: PC-3, 72 h, read-out: Activity.
Series [15] deals with PC-3. Nature of the series: Potentiation of 2 nM docetaxel-induced cytotoxicity against human PC3 cells assessed as cell viability at 50 nM after 72 hrs by trypan blue exclusion assay relative to control. The format is functional.
Series [16] relates to PC-3. Briefly: Potentiation of 2 nM docetaxel-induced cytotoxicity against 3D culture of human PC3 cells assessed as size of tissue like structure at 50 nM administered once every alternative day for 10 days measured on post last dose by matrigel based microscopic method relative to control. The format is functional.
In series [17] the target is Mitogen-activated protein kinase 3 (Homo sapiens) (UniProt P27361). Nature of the series: Inhibition of Erk1 phosphorylation in human PC3 cells at 50 nM after 24 hrs by Western blot method relative to control. Type of series: cell-based.
Sequence of Mitogen-activated protein kinase 3 (Homo sapiens) (P27361 whole entry): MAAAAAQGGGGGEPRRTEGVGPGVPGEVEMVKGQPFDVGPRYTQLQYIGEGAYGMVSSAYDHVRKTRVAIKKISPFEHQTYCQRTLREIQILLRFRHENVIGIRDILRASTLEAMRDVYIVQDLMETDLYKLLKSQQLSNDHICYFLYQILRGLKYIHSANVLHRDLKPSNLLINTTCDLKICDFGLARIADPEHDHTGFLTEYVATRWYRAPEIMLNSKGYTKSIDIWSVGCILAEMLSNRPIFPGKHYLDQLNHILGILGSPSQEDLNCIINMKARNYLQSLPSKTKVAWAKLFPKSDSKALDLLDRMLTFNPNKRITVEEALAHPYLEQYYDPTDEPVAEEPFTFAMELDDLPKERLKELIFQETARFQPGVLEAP
Series [18] has as its target Mitogen-activated protein kinase 1 (Homo sapiens) (UniProt P28482). Briefly: Inhibition of Erk2 phosphorylation in human PC3 cells at 50 nM after 24 hrs by Western blot method relative to control. Type of series: cell-based. On the technique in general: A western blot detects proteins with antibodies after separation by electrophoresis.
For series [19] the target is unchanged. Briefly: Potentiation of 2 nM docetaxel-induced inhibition of Erk2 phosphorylation in human PC3 cells at 50 nM after 24 hrs by Western blot method relative to control. Type of series: cell-based.
Series [20] relates to RWPE-1. Briefly: Potentiation of 3 nM docetaxel-induced cytotoxicity against human RWPE1 cells assessed as decrease in cell viability at 50 nM after 72 hrs by trypan blue exclusion assay. The format is cell-based. Conditions: rwpe-1, 72 h, 0.05 µM.
Series [21] in a line: Selectivity ratio for potentiation of 2 nM docetaxel-induced cytotoxicity against human PC3 cells to potentiation of 2 nM docetaxel-induced cytotoxicity against human RWPE1 cells.
Series [22] relates to PC-3. Briefly: Potentiation of 2 nM docetaxel-induced apoptosis in human PC3 cells assessed as Bcl2 level at 50 nM after 24 hrs by Western blot method relative to control. The format is functional.
For series [23], the target named is RAC-alpha serine/threonine-protein kinase (Homo sapiens) (UniProt P31749). Nature of the series: Potentiation of 2 nM docetaxel-induced inhibition of Akt phosphorylation in human PC3 cells at 50 nM after 24 hrs by Western blot method relative to control. Type of series: cell-based.
Series [24] addresses Mitogen-activated protein kinase 3 (Homo sapiens) (UniProt P27361). Briefly: Potentiation of 2 nM docetaxel-induced inhibition of Erk1 phosphorylation in human PC3 cells at 50 nM after 24 hrs by Western blot method relative to control. Type of series: cell-based.
In series [25] the test system is PC-3. Nature of the series: Cytotoxicity against 3D cultures of human PC3 cells assessed as size of tissue-like structure at 2 nM administered once every alternative day for 10 days measured on post last dose by matrigel based microscopic method relative to control. Type of series: functional.
Series [26] is described as follows: Drug uptake in patient plasma at 20 mg/m2, iv administered for 1 hr as infusion measured 72 hrs post dose. Conditions: human. The format is ADME, organism-based.
Series [27] relates to Plasma. Nature of the series: Drug uptake in cancer patient plasma at 35 mg/m2, iv administered once every week via infusion measured on day 8 by HPLC-TMS. The format is ADME, organism-based. Conditions: human, in vivo.
Series [28] relates to RWPE-1. Briefly: Cytotoxicity against human RWPE1 cells at 5 to 10 nM after 72 hrs by trypan blue exclusion assay. The format is cell-based. Conditions: rwpe-1, 72 h, 0.01 µM.
In series [29] the test system is PC-3. Briefly: Induction of apoptosis in human PC3 cells at 2 nM after 72 hrs by propidium iodide staining based fluorescence microscopy (reference value: 1.9 +/- 0.8%). The format is functional.
Series [30] concerns PC-3. Nature of the series: Cytotoxicity against human PC3 cells assessed as cell viability at 2 nM after 72 hrs by trypan blue exclusion assay relative to control. Type of series: functional. Conditions: PC-3, 72 h, read-out: Activity.
In series [31] the test system is PC-3. Briefly: Cytotoxicity against human PC3 cells. Type of series: functional, cell-based.
Series [32] has as its target RAC-alpha serine/threonine-protein kinase (Homo sapiens) (UniProt P31749). Briefly: Inhibition of Akt phosphorylation in human PC3 cells at 2 nM after 24 hrs by Western blot method relative to control. The format is cell-based.
Series [33] deals with Mitogen-activated protein kinase 3 (Homo sapiens) (UniProt P27361). Nature of the series: Inhibition of Erk1 phosphorylation in human PC3 cells at 2 nM after 24 hrs by Western blot method relative to control. Type of series: cell-based.
Series [34] has as its target Mitogen-activated protein kinase 1 (Homo sapiens) (UniProt P28482). Briefly: Inhibition of Erk2 phosphorylation in human PC3 cells at 2 nM after 24 hrs by Western blot method relative to control. Type of series: cell-based.
Series [35] relates to PC-3. Briefly: Induction of apoptosis in human PC3 cells assessed as Bcl2 level at 2 nM after 24 hrs by Western blot method relative to control. Type of series: functional.

Structures are written as SMILES. Activity calls are given as the source filed them. The calls are words filed in the database; no cut-off is given here.

Sequence of Mitogen-activated protein kinase 1 (Homo sapiens) (P28482 whole entry): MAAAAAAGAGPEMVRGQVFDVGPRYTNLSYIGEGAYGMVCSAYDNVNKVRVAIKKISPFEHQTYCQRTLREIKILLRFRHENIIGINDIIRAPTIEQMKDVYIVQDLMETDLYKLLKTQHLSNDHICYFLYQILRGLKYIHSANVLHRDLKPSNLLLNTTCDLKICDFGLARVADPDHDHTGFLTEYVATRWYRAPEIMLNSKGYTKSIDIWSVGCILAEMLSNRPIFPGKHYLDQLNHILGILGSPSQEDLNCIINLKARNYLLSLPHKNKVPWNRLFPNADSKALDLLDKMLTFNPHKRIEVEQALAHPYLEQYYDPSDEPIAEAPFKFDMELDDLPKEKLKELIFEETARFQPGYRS
Sequence of RAC-alpha serine/threonine-protein kinase (Homo sapiens) (P31749 whole entry): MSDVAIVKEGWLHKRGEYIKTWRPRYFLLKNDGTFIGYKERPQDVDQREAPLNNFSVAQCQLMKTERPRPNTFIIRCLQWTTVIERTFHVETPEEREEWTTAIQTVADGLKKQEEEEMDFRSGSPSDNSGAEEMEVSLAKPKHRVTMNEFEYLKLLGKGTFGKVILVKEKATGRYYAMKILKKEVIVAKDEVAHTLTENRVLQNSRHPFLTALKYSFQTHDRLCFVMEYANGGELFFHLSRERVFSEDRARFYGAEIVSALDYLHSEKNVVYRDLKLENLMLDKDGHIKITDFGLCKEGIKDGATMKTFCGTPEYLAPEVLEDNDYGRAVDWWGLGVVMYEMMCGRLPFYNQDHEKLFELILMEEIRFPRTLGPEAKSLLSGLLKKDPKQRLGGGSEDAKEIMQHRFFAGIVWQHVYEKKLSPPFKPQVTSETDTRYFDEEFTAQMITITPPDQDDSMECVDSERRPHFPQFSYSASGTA

For `C[C@H]1CCC/C=C/[C@@H]2C[C@H](O)C[C@H]2[C@H](O)/C=C/C(=O)O1` [BREFELDIN A], the fold change (FC) in series [1] came to 0.99; in [2], 0.99; in series [17], 0.99; in series [18], 0.97; in series [19] it was 0.96; in series [22] it was 0.32. The figures for the fold change (FC) in series [23] and in series [24] were 0.97 and 0.93, respectively. Besides, the Activity in [3] was 79.3%; in series [4], “Dose-dependent effect”; in [5], “Dose-dependent effect”; in series [6], “Dose-dependent effect”; in series [7] it was “Dose-dependent effect”; in [9], “Toxic”. Further, the Activity entry in [11] was “Toxic”; in series [12], 18%; in series [13], 51.2%; in [15], 48.4%; in [16], 38.8%; in series [20], “Toxic”. This compound returned a concentration at 1 h in series [8] of 700 nM. Also, the result in [10] was Active. The viability at 0.05 µM in series [14] stood at 83.4%. In addition, in [21], the Selectivity ratio is reported as 4.

By IC50 is commonly meant the concentration that gives 50% inhibition. As for `CC(=O)O[C@@]12CO[C@@H]1C[C@H](O)[C@@]1(C)C(=O)[C@H](O)C3=C(C)[C@@H](OC(=O)[C@H](O)[C@@H](NC(=O)OC(C)(C)C)c4ccccc4)C[C@@](O)([C@@H](OC(=O)c4ccccc4)[C@H]21)C3(C)C` [DOCETAXEL ANHYDROUS], the Activity is 83.1% in series [25]; “Dose-dependent effect” in [4]; “Dose-dependent effect” in [5]; “Dose-dependent effect” in series [6]; “Dose-dependent effect” in series [7]; “Toxic” in series [28]. In addition, the Activity entry in series [11] was “Toxic”; in series [29] it was 14.5%. The half-inhibitory concentration (IC50) in series [5] (PC-3, 72 h) is 8 nM; in series [31], 5 to 24 nM. The compound also came in with a concentration at 72 h in series [26] of 2.8 nM. In addition, in series [27], the concentration worked out at 1.79 nM. In series [10], the result was Active. The viability at 0.002 µM in series [30] was 86.7%. For the same compound, the fold change (FC) in series [32] worked out at 1.01; in [33], 0.95; in series [34], 0.96; in [35] it was 0.71.

(Values after ChEMBL document CHEMBL4024735, “Brefeldin A enhances docetaxel-induced growth inhibition and apoptosis in prostate cancer cells in monolayer and 3D cultures” (Bioorg Med Chem Lett, 2017).)
